Patent publication US12077503B2, “Substituted cyclic amides and their use as herbicides” (FMC CORPORATION, priority 2015, dated 2024)

Assays:
Type in all cases: in vivo
[1] = tested on: barnyardgrass (Echinochloa crus-galli); experiment: Test A preemergence; details: Echinochloa crus-galli, pre-emergence, 240 h, preemergence, 0 to 100 scale where 0 is no effect and 100 is complete control, read-out: Barnyardgrass plant response rating
Summary of the method: (§1)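 Each rating is a visual injury score from 0 to 100 given about 10 d after treatment, judged against untreated controls kept alongside in the greenhouse. In loam soil–sand blend, seeds got a preemergence directed soil spray, while postemergence plants were 2 to 10 cm tall at spraying.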

[2] = tested on: giant foxtail (Setaria faberii); experiment: Test A preemergence; details: Setaria faberi, pre-emergence, 240 h, preemergence, 0 to 100 scale where 0 is no effect and 100 is complete control, read-out: Foxtail, Giant plant response rating
Summary of the method: as §1

[3] = tested on: pigweed (Amaranthus retroflexus); experiment: Test A preemergence; details: Amaranthus retroflexus, pre-emergence, 240 h, preemergence, 0 to 100 scale where 0 is no effect and 100 is complete control, read-out: Pigweed plant response rating
[4] = tested on: ragweed (common ragweed, Ambrosia elatior); experiment: Test A preemergence; details: Ambrosia artemisiifolia, pre-emergence, 240 h, preemergence, 0 to 100 scale where 0 is no effect and 100 is complete control, read-out: Ragweed plant response rating
Summary of the method: as §1

[5] = tested on: ryegrass, Italian (Italian ryegrass, Lolium multiflorum); experiment: Test A preemergence; details: Lolium multiflorum, pre-emergence, 240 h, preemergence, 0 to 100 scale where 0 is no effect and 100 is complete control, read-out: Ryegrass, Italian plant response rating
Summary of the method: as §1

Kochia (Kochia scoparia) [6] = experiment: Test A preemergence; details: Bassia scoparia, pre-emergence, 240 h, preemergence, 0 to 100 scale where 0 is no effect and 100 is complete control, read-out: Kochia plant response rating
Summary of the method: as §1

corn (Zea mays) = experiment: Test A postemergence; details: Zea mays, post-emergence, 240 h, postemergence
Summary of the method: as §1

[7] = tested on: barnyardgrass (Echinochloa crus-galli); experiment: Test A postemergence; details: Echinochloa crus-galli, post-emergence, 240 h, postemergence
Summary of the method: as §1

[8] = tested on: giant foxtail (Setaria faberii); experiment: Test A postemergence; details: Setaria faberi, post-emergence, 240 h, postemergence
Summary of the method: as §1

[9] = tested on: pigweed (Amaranthus retroflexus); experiment: Test A postemergence; details: Amaranthus retroflexus, post-emergence, 240 h, postemergence
Summary of the method: as §1

[10] = tested on: blackgrass (Alopecurus myosuroides); experiment: Test A postemergence; details: Alopecurus myosuroides, post-emergence, 240 h, postemergence
Summary of the method: as §1

[11] = tested on: ragweed (common ragweed, Ambrosia elatior); experiment: Test A postemergence; details: Ambrosia artemisiifolia, post-emergence, 240 h, postemergence
Summary of the method: as §1

[12] = tested on: ryegrass, Italian (Italian ryegrass, Lolium multiflorum); experiment: Test A postemergence; details: Lolium multiflorum, post-emergence, 240 h, postemergence
Summary of the method: as §1

[13] = tested on: wheat (Triticum aestivum); experiment: Test A postemergence; details: Triticum aestivum, post-emergence, 240 h, postemergence
Summary of the method: as §1

Kochia (Kochia scoparia) [14] = experiment: Test A postemergence; details: Bassia scoparia, post-emergence, 240 h, postemergence
Summary of the method: as §1

[15] = tested on: Galium (catchweed bedstraw, Galium aparine); experiment: Test A postemergence; details: Galium, post-emergence, 240 h, postemergence
Summary of the method: as §1

[16] = 125 g ai/ha, visual injury rating, approximately 10 d

N#Cc1cc([C@H]2CNC(=O)[C@@H]2C(=O)Nc2ccccc2F)ccc1F [Compound 1199]
pest or weed control at 125 g/ha [1, 16]: 90% | pest or weed control at 500 g/ha ([1]; 500 g ai/ha): 100% | pest or weed control at 125 g/ha [2, 16]: 90% | pest or weed control at 500 g/ha ([2]; 500 g ai/ha): 100% | pest or weed control at 125 g/ha [3, 16]: 0% | pest or weed control at 500 g/ha ([3]; 500 g ai/ha): 60% | pest or weed control at 125 g/ha [4, 16]: 30% | pest or weed control at 500 g/ha ([4]; 500 g ai/ha): 90% | pest or weed control at 125 g/ha [5, 16]: 0% | pest or weed control at 500 g/ha ([5]; 500 g ai/ha): 0% | pest or weed control at 125 g/ha (Kochia (Kochia scoparia) [6]; [16]): 0% | pest or weed control at 500 g/ha (Kochia (Kochia scoparia) [6]; 500 g ai/ha): 0% | plant injury at 125 g/ha (corn (Zea mays); 125 g ai/ha, visual injury vs untreated controls after approx. 10 d, 0 = no effect, 100 = complete control, read-out: Corn plant response rating (0 to 100 scale)): 0% | plant injury at 500 g/ha (corn (Zea mays); 500 g ai/ha, 0 to 100 scale, 0 is no effect, 100 is complete control, read-out: Corn plant response rating): 0% | pest or weed control at 125 g/ha ([7]; 125 g ai/ha, visual injury vs untreated controls after approx. 10 d, 0 = no effect, 100 = complete control, read-out: Barnyardgrass plant response rating (0 to 100 scale)): 70% | pest or weed control at 500 g/ha ([7]; 500 g ai/ha, 0 to 100 scale, 0 is no effect, 100 is complete control, read-out: Barnyardgrass plant response rating): 100% | pest or weed control at 125 g/ha ([8]; 125 g ai/ha, visual injury vs untreated controls after approx. 10 d, 0 = no effect, 100 = complete control, read-out: Foxtail, Giant plant response rating (0 to 100 scale)): 70% | pest or weed control at 500 g/ha ([8]; 500 g ai/ha, 0 to 100 scale, 0 is no effect, 100 is complete control, read-out: Foxtail, Giant plant response rating): 90% | pest or weed control at 125 g/ha ([9]; 125 g ai/ha, visual injury vs untreated controls after approx. 10 d, 0 = no effect, 100 = complete control, read-out: Pigweed plant response rating (0 to 100 scale)): 0% | pest or weed control at 500 g/ha ([9]; 500 g ai/ha, 0 to 100 scale, 0 is no effect, 100 is complete control, read-out: Pigweed plant response rating): 20% | pest or weed control at 125 g/ha ([10]; 125 g ai/ha, visual injury vs untreated controls after approx. 10 d, 0 = no effect, 100 = complete control, read-out: Blackgrass plant response rating (0 to 100 scale)): 0% | pest or weed control at 500 g/ha ([10]; 500 g ai/ha, 0 to 100 scale, 0 is no effect, 100 is complete control, read-out: Blackgrass plant response rating): 0% | pest or weed control at 125 g/ha ([11]; 125 g ai/ha, visual injury vs untreated controls after approx. 10 d, 0 = no effect, 100 = complete control, read-out: Ragweed plant response rating (0 to 100 scale)): 0% | pest or weed control at 500 g/ha ([11]; 500 g ai/ha, 0 to 100 scale, 0 is no effect, 100 is complete control, read-out: Ragweed plant response rating): 0% | pest or weed control at 125 g/ha ([12]; 125 g ai/ha, visual injury vs untreated controls after approx. 10 d, 0 = no effect, 100 = complete control, read-out: Ryegrass, Italian plant response rating (0 to 100 scale)): 0% | pest or weed control at 500 g/ha ([12]; 500 g ai/ha, 0 to 100 scale, 0 is no effect, 100 is complete control, read-out: Ryegrass, Italian plant response rating): 20% | plant injury at 125 g/ha ([13]; 125 g ai/ha, visual injury vs untreated controls after approx. 10 d, 0 = no effect, 100 = complete control, read-out: Wheat plant response rating (0 to 100 scale)): 0% | plant injury at 500 g/ha ([13]; 500 g ai/ha, 0 to 100 scale, 0 is no effect, 100 is complete control, read-out: Wheat plant response rating): 0% | pest or weed control at 125 g/ha (Kochia (Kochia scoparia) [14]; 125 g ai/ha, visual injury vs untreated controls after approx. 10 d, 0 = no effect, 100 = complete control, read-out: Kochia plant response rating (0 to 100 scale)): 20% | pest or weed control at 500 g/ha (Kochia (Kochia scoparia) [14]; 500 g ai/ha, 0 to 100 scale, 0 is no effect, 100 is complete control, read-out: Kochia plant response rating): 40% | pest or weed control at 125 g/ha ([15]; 125 g ai/ha, visual injury vs untreated controls after approx. 10 d, 0 = no effect, 100 = complete control, read-out: Galium plant response rating (0 to 100 scale)): 20% | pest or weed control at 500 g/ha ([15]; 500 g ai/ha, 0 to 100 scale, 0 is no effect, 100 is complete control, read-out: Galium plant response rating): 40%
